*1 amine or outer side, *2 acyl side, *3 side chain or, on linkers, in order; H or OH if unused. Where a SMILES comes first, the peptide text is derived from it. Bridges are numbered along the chain shown (N, C = ends). [ ]: non-standard residue; d: D form. The star is where a group is joined. NH(1-deoxy-D-glucityl) = OC[C@@H](O)[C@@H](O)[C@H](O)[C@@H](O)CN*; DOTA = O=C(O)CN1CCN(CC(=O)O)CCN(CC(=O)*)CCN(CC(=O)O)CC1; X9 = O=C(O)CN1CCN(CC(=O)O)CCN([C@H](CCC(=O)*)C(=O)O)CC1; Trp(5-Cl) = N[C@@H](Cc1c[nH]c2ccc(Cl)cc12)C(=O)O; Pyridine(2,6-diCH2) = c1cc(C[*:1])nc(C[*:2])c1; Pro(4R-NH2) = N[C@H]1CN[C@H](C(=O)O)C1; Glutaryl = O=C(CCCC(=O)[*:2])[*:1]; PEG6 = NCCOCCOCCOCCOCCOCCOCCC(=O)O; X1 = O=C(CN1CCC(N[*:1])CC1)[*:2]; Suc = O=C(CCC(=O)[*:2])[*:1]; dDab = NCC[C@@H](N)C(=O)O; Api = NC1(C(=O)O)CCNCC1; Dab = NCC[C@H](N)C(=O)O; Thp = NC1(C(=O)O)CCOCC1; AEEA = NCCOCCOCC(=O)O
Biological target: T1, GIPR (CHO-K1-hGIPR cells) (Homo sapiens, UniProt P48546)
T1 construct: host or cells: CHO-K1
T1 sequence (P48546 22-466): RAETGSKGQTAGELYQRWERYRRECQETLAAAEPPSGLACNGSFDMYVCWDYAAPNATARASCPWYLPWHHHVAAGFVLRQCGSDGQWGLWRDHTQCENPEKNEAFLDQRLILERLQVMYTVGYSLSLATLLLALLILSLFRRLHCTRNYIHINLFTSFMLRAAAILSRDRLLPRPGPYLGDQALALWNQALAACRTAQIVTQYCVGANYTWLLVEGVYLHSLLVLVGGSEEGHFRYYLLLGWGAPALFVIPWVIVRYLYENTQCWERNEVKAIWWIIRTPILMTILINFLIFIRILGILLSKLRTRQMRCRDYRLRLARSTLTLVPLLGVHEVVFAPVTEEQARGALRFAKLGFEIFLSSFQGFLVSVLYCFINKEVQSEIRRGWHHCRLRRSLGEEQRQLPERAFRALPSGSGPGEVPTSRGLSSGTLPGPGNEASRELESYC
Assay: FACS binding assay
Conditions: competition with 20 nM GIP-057, 4° C., 1 hour, read-out: pIC50 Category (converted)
Experimental: In order to determine binding of compounds according to the present invention to GIPR-expressing cells, a FACS binding assay was established.
CHO-K1-hGIPR cells (GenScript Biotech, #M00486) were cultured in Ham's F12 medium (Sigma-Aldrich, #N4888) including 10% fetal calf serum (FCS), 2 mM L-glutamine, 100 U/mL penicillin, 100 μg/mL streptomycin, 200 μg/mL Zeocin and 100 μg/mL HygromycinB. Cells were detached with Accutase (Biolegend, #BLD-423201) and washed in FACS buffer (PBS including 1% FCS). Cells were diluted in FACS buffer to a final concentration of 500.000 cells per mL. 200 μL of the cell suspension were transferred to a u-shaped non-binding 96-well plate (Greiner) and cells were washed in ice-cold FACS buffer.
Cells were washed twice in FACS buffer. An additional incubation step with 1 μg/mL APC-Streptavidin (Miltenyi; #130-106-791) in 50 μL FACS buffer for 30 min on ice was performed followed by two washes with FACS buffer.
Cells were analyzed in an Attune NxT flow cytometer. Median fluorescence intensities (MFI) of the APC/Cy5-channel were calculated by Attune NxT software. MFI values were plotted against peptide concentration and four parameter logistic (4PL) curve fitting and EC50/pEC50 or IC50/pIC50 calculations were performed using ActivityBase software.

SMILES | IC50
CC[C@H](C)[C@@H]1NC(=O)[C@H](CC(C)C)NC(=O)C2(CCOCC2)NC(=O)[C@@H](NC(=O)[C@@H](CC(C)C)NC(=O)[C@H](CCC(=O)O)NC(=O)[C@@H]2C[C@@H](N)CN2C(=O)[C@H](Cc2c[nH]c3ccc(Cl)cc23)NC(=O)[C@H](Cc2c[nH]c3ccccc23)NC(=O)[C@H](CC(=O)O)NC(=O)CCOCCOCCOCCOCCOCCOCCNC(=O)[C@@H](CCC(=O)NC[C@H](O)[C@@H](O)[C@H](O)[C@H](O)CO)NC(=O)CN2CCN(CC(=O)O)CCN(CC(=O)O)CCN(CC(=O)O)CC2)CSCc2cccc(n2)CSC[C@@H](C(=O)NC2CCN(CC(=O)N[C@H](CCC(=O)NC[C@H](O)[C@@H](O)[C@H](O)[C@H](O)CO)C(N)=O)CC2)NC1=O [GIP-019, DOTA-glu(AGLU)-PEG6-Asp-Trp-5Clw-Tap-Glu-leu-[Cys(2Lut)-Thp-Leu-Ile-Cys]-APAc-glu(AGLU)-NH2] ({DOTA}-[dE](NH(1-deoxy-D-glucityl))[PEG6]DW[Trp(5-Cl)][Pro(4R-NH2)]E[dL]C[Thp]LIC[X1][dE](NH(1-deoxy-D-glucityl))-NH2; linker 9-13 via Pyridine(2,6-diCH2)) | < 10 nM
CC[C@H](C)[C@@H]1NC(=O)[C@H](CC(C)C)NC(=O)C2(CCOCC2)NC(=O)[C@@H](NC(=O)[C@@H](CC(C)C)NC(=O)[C@H](CCC(=O)O)NC(=O)[C@@H]2C[C@@H](N)CN2C(=O)[C@H](Cc2c[nH]c3ccc(Cl)cc23)NC(=O)[C@H](Cc2c[nH]c3ccccc23)NC(=O)[C@H](CC(=O)O)NC(=O)COCCOCCNC(=O)[C@@H](CCC(=O)NC[C@H](O)[C@@H](O)[C@H](O)[C@H](O)CO)NC(=O)CN2CCN(CC(=O)O)CCN(CC(=O)O)CCN(CC(=O)O)CC2)CSCc2cccc(n2)CSC[C@@H](C(=O)NC2CCN(CC(=O)N[C@H](CCC(=O)NC[C@H](O)[C@@H](O)[C@H](O)[C@H](O)CO)C(N)=O)CC2)NC1=O [GIP-020, DOTA-glu(AGLU)-O2Oc-Asp-Trp-5Clw-Tap-Glu-leu-[Cys(2Lut)-Thp-Leu-Ile-Cys]-APAc-glu(AGLU)-NH2] ({DOTA}-[dE](NH(1-deoxy-D-glucityl))[AEEA]DW[Trp(5-Cl)][Pro(4R-NH2)]E[dL]C[Thp]LIC[X1][dE](NH(1-deoxy-D-glucityl))-NH2; linker 9-13 via Pyridine(2,6-diCH2)) | < 10 nM
CC[C@H](C)[C@@H]1NC(=O)[C@H](CC(C)C)NC(=O)C2(CCN(C(=O)CN3CCN(CC(=O)O)CCN(CC(=O)O)CCN(CC(=O)O)CC3)CC2)NC(=O)[C@@H](NC(=O)[C@@H](CC(C)C)NC(=O)[C@H](CCC(=O)O)NC(=O)[C@@H]2C[C@@H](N)CN2C(=O)[C@H](Cc2c[nH]c3ccc(Cl)cc23)NC(=O)[C@H](Cc2c[nH]c3ccccc23)NC(=O)CCC(=O)O)CSCc2cccc(n2)CSC[C@@H](C(=O)NC2CCN(CC(=O)N[C@H](CCC(=O)NC[C@H](O)[C@@H](O)[C@H](O)[C@H](O)CO)C(N)=O)CC2)NC1=O [GIP-023, HO-Succinyl-Trp-5Clw-Tap-Glu-leu-[Cys(2Lut)-Apc(DOTA)-Leu-Ile-Cys]-APAc-glu(AGLU)-NH2] (Suc-W[Trp(5-Cl)][Pro(4R-NH2)]E[dL]C[Api](DOTA)LIC[X1][dE](NH(1-deoxy-D-glucityl))-NH2; linker 6-10 via Pyridine(2,6-diCH2)) | < 10 nM
CC[C@H](C)[C@@H]1NC(=O)[C@H](CC(C)C)NC(=O)[C@H](CCCCNC(=O)CN2CCN(CC(=O)O)CCN(CC(=O)O)CCN(CC(=O)O)CC2)NC(=O)[C@@H](NC(=O)[C@@H](CC(C)C)NC(=O)[C@H](CCC(=O)O)NC(=O)[C@@H]2C[C@@H](N)CN2C(=O)[C@H](Cc2c[nH]c3ccc(Cl)cc23)NC(=O)[C@H](Cc2c[nH]c3ccccc23)NC(=O)[C@H](CC(=O)O)NC(=O)CCCC(=O)NC[C@H](O)[C@@H](O)[C@H](O)[C@H](O)CO)CSCc2cccc(n2)CSC[C@@H](C(=O)NC2CCN(CC(=O)N[C@H](CCC(=O)NC[C@H](O)[C@@H](O)[C@H](O)[C@H](O)CO)C(N)=O)CC2)NC1=O [GIP-024, AGLU-Glutar-Asp-Trp-5Clw-Tap-Glu-leu-[Cys(2Lut)-Lys(DOTA)-Leu-Ile-Cys]-APAc-glu(AGLU)-NH2] ({NH(1-deoxy-D-glucityl)-Glutaryl}-DW[Trp(5-Cl)][Pro(4R-NH2)]E[dL]CK(DOTA)LIC[X1][dE](NH(1-deoxy-D-glucityl))-NH2; linker 7-11 via Pyridine(2,6-diCH2)) | < 10 nM
CC[C@H](C)[C@@H]1NC(=O)[C@H](CC(C)C)NC(=O)C2(CCN(C(=O)CC[C@H](C(=O)O)N3CCN(CC(=O)O)CCN(CC(=O)O)CC3)CC2)NC(=O)[C@@H](NC(=O)[C@@H](CC(C)C)NC(=O)[C@H](CCC(=O)O)NC(=O)[C@@H]2C[C@@H](N)CN2C(=O)[C@H](Cc2c[nH]c3ccc(Cl)cc23)NC(=O)[C@H](Cc2c[nH]c3ccccc23)NC(=O)[C@H](CC(=O)O)NC(=O)CCCC(=O)NC[C@H](O)[C@@H](O)[C@H](O)[C@H](O)CO)CSCc2cccc(n2)CSC[C@@H](C(=O)NC2CCN(CC(=O)N[C@H](CCC(=O)NC[C@H](O)[C@@H](O)[C@H](O)[C@H](O)CO)C(N)=O)CC2)NC1=O [GIP-028, AGLU-Glutar-Asp-Trp-5Clw-Tap-Glu-leu-[Cys(2Lut)-Apc(NODAGA)-Leu-Ile-Cys]-APAc-glu(AGLU)-NH2] ({NH(1-deoxy-D-glucityl)-Glutaryl}-DW[Trp(5-Cl)][Pro(4R-NH2)]E[dL]C[Api](X9)LIC[X1][dE](NH(1-deoxy-D-glucityl))-NH2; linker 7-11 via Pyridine(2,6-diCH2)) | < 10 nM

Second part, the compound after the results:

IC50 | SMILES
10 to 79.4 nM | CC[C@H](C)[C@@H]1NC(=O)[C@H](CC(C)C)NC(=O)[C@@H](CCCCNC(=O)CN2CCN(CC(=O)O)CCN(CC(=O)O)CCN(CC(=O)O)CC2)NC(=O)[C@@H](NC(=O)[C@@H](CC(C)C)NC(=O)[C@H](CCC(=O)O)NC(=O)[C@@H]2C[C@@H](N)CN2C(=O)[C@H](Cc2c[nH]c3ccc(Cl)cc23)NC(=O)[C@H](Cc2c[nH]c3ccccc23)NC(=O)[C@H](CC(=O)O)NC(=O)CCCC(=O)NC[C@H](O)[C@@H](O)[C@H](O)[C@H](O)CO)CSCc2cccc(n2)CSC[C@@H](C(=O)NC2CCN(CC(=O)N[C@H](CCC(=O)NC[C@H](O)[C@@H](O)[C@H](O)[C@H](O)CO)C(N)=O)CC2)NC1=O [GIP-025, AGLU-Glutar-Asp-Trp-5Clw-Tap-Glu-leu-[Cys(2Lut)-lys(DOTA)-Leu-Ile-Cys]-APAc-glu(AGLU)-NH2] ({NH(1-deoxy-D-glucityl)-Glutaryl}-DW[Trp(5-Cl)][Pro(4R-NH2)]E[dL]C[dK](DOTA)LIC[X1][dE](NH(1-deoxy-D-glucityl))-NH2; linker 7-11 via Pyridine(2,6-diCH2))
< 10 nM | CC[C@H](C)[C@@H]1NC(=O)[C@H](CC(C)C)NC(=O)[C@H](CCNC(=O)CN2CCN(CC(=O)O)CCN(CC(=O)O)CCN(CC(=O)O)CC2)NC(=O)[C@@H](NC(=O)[C@@H](CC(C)C)NC(=O)[C@H](CCC(=O)O)NC(=O)[C@@H]2C[C@@H](N)CN2C(=O)[C@H](Cc2c[nH]c3ccc(Cl)cc23)NC(=O)[C@H](Cc2c[nH]c3ccccc23)NC(=O)[C@H](CC(=O)O)NC(=O)CCCC(=O)NC[C@H](O)[C@@H](O)[C@H](O)[C@H](O)CO)CSCc2cccc(n2)CSC[C@@H](C(=O)NC2CCN(CC(=O)N[C@H](CCC(=O)NC[C@H](O)[C@@H](O)[C@H](O)[C@H](O)CO)C(N)=O)CC2)NC1=O [GIP-026, AGLU-Glutar-Asp-Trp-5Clw-Tap-Glu-leu-[Cys(2Lut)-Dab(DOTA)-Leu-Ile-Cys]-APAc-glu(AGLU)-NH2] ({NH(1-deoxy-D-glucityl)-Glutaryl}-DW[Trp(5-Cl)][Pro(4R-NH2)]E[dL]C[Dab](DOTA)LIC[X1][dE](NH(1-deoxy-D-glucityl))-NH2; linker 7-11 via Pyridine(2,6-diCH2))
10 to 79.4 nM | CC[C@H](C)[C@@H]1NC(=O)[C@H](CC(C)C)NC(=O)[C@@H](CCNC(=O)CN2CCN(CC(=O)O)CCN(CC(=O)O)CCN(CC(=O)O)CC2)NC(=O)[C@@H](NC(=O)[C@@H](CC(C)C)NC(=O)[C@H](CCC(=O)O)NC(=O)[C@@H]2C[C@@H](N)CN2C(=O)[C@H](Cc2c[nH]c3ccc(Cl)cc23)NC(=O)[C@H](Cc2c[nH]c3ccccc23)NC(=O)[C@H](CC(=O)O)NC(=O)CCCC(=O)NC[C@H](O)[C@@H](O)[C@H](O)[C@H](O)CO)CSCc2cccc(n2)CSC[C@@H](C(=O)NC2CCN(CC(=O)N[C@H](CCC(=O)NC[C@H](O)[C@@H](O)[C@H](O)[C@H](O)CO)C(N)=O)CC2)NC1=O [GIP-027, AGLU-Glutar-Asp-Trp-5Clw-Tap-Glu-leu-[Cys(2Lut)-dab(DOTA)-Leu-Ile-Cys]-APAc-glu(AGLU)-NH2] ({NH(1-deoxy-D-glucityl)-Glutaryl}-DW[Trp(5-Cl)][Pro(4R-NH2)]E[dL]C[dDab](DOTA)LIC[X1][dE](NH(1-deoxy-D-glucityl))-NH2; linker 7-11 via Pyridine(2,6-diCH2))

Reference: patent publication US20250296971A1, “GASTRIC INHIBITORY PEPTIDE RECEPTOR LIGANDS” (priority 2021, published 2025)
